Columns and labels:
Xenopus laevis [1] = organism: Xenopus laevis; assay: Growth inhibition of Xenopus laevis blastular stage cells at 10 ug/mL; type: functional; details: Blastula stage, read-out: GI
Xenopus laevis [2] = organism: Xenopus laevis; assay: Induction of cell cleavage arrest in Xenopus laevis blastular stage cells at 10 ug/mL; type: functional, Blastula stage

Row | Structure (SMILES) | inhibition of growth at 10 µg/mL (Xenopus laevis [1]) [%] | Activity (Xenopus laevis [2]) [%]
1 | O=c1[nH]cc(F)c(=O)[nH]1 [FLUOROURACIL] | 47 | 
2 | CC(C)=CCC[C@H](C)[C@@H]1CC[C@]2(C)C3=C(CC[C@@]12C)[C@@]1(C)CC[C@H](O)C(C)(C)[C@@H]1CC3=O |  | >50
3 | CC(C)=CCC[C@@H](C)[C@@H]1CC[C@]2(C)C3=C(CC[C@@]12C)[C@@]1(C)CC[C@H](O)C(C)(C)[C@@H]1CC3=O [KANSENONE] |  | >50
